Laboratory results taken from patent US11492385B2, “Long-acting co-agonists of the glucagon and GLP-1 receptors” (Merck Sharp & Dohme Corp., priority 2015, dated 2022).
Starred links: 1 amine or outer side, 2 acyl side, 3 side chain; linkers in the order of their positions; H or OH if unused. Non-standard residues stand in square brackets, D forms with d. Residues, ends and D or L forms follow the SMILES beside them. Groups on a side chain read outwards from the residue. No end group written: not given here. *: point of attachment. Phe(4-CH2NH2) = NCc1ccc(C[C@H](N)C(=O)O)cc1; C18 diacid = O=C(O)CCCCCCCCCCCCCCCCC(=O)*; C16 diacid = O=C(O)CCCCCCCCCCCCCCC(=O)*; γGlu = O=C(O)[C@H](CCC(=O)[*:2])N[*:1]; C14 diacid = O=C(O)CCCCCCCCCCCCC(=O)*; Met(O2) = CS(=O)(=O)CC[C@H](N)C(=O)O; αMeF = C[C@](N)(Cc1ccccc1)C(=O)O; αMeD = C[C@](N)(CC(=O)O)C(=O)O; AEEA = NCCOCCOCC(=O)O; Aib = CC(C)(N)C(=O)O

What was measured:
[1] = Duration of action in DIO mice: blood glucose after a single sc dose; format: in vivo; conditions: single sc dose at day zero, compared to liraglutide and semaglutide (FIG. 1C)
Protocol: (§1) In this example, the duration of action of several of the peptides or co-agonist peptides was evaluated in diet-induced obese (DIO) mice. The duration of action of the peptides were compared to the duration of action of Semaglutide (sema) and Liraglutide (lira). The peptides tested were SEQ ID NOs: 2, 19, 28, 29, and 33 (Seq 2, Seq 19, Seq 28, Seq 29, and Seq 33, respectively).

[2] = Duration of action in DIO mice: food intake after a single sc dose; format: in vivo; conditions: single sc dose at day zero, compared to liraglutide and semaglutide (FIG. 1B)
Protocol: as §1

[3] = Duration of action in DIO mice: body weight after a single sc dose; format: in vivo; conditions: single sc dose at day zero, compared to liraglutide and semaglutide (FIG. 1A)
Protocol: as §1

[4] = molecular target: T1, human GCGR (Homo sapiens, UniProt P47871); test: cAMP activity assay, cells expressing human GCGR; format: cell-based; conditions: for EC50: cAMP production, cells expressing human GCGR, assay buffer with or without 20% human serum (not stated which), read-out: GCGR EC50 human; for hGCGR/hGLP1R (hTone): ratio of human GCGR EC50 to human GLP1R EC50
T1 construct: expressed in transfected cells; kept under Blasticidin and Hygromycin selection
T1 sequence (P47871 26-477): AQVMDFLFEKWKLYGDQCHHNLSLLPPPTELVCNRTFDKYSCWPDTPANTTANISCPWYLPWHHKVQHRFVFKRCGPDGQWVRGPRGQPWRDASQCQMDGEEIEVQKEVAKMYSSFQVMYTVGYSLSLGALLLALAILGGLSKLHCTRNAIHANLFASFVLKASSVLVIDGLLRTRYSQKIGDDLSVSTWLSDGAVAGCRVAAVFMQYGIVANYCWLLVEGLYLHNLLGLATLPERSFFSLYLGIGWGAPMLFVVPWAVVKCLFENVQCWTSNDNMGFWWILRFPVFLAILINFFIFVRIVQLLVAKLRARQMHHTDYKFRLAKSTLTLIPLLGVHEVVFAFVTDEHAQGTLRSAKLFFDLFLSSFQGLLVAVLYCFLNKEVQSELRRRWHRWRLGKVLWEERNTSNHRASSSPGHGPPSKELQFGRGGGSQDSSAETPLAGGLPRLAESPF
How it was run: (§2)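 cAMP production in human GLP1R- or GCGR-expressing cells was read by luminescence after overnight dark incubation at room temperature. Peptides were given as 10-point DMSO dilution series, with native GLP-1 and glucagon as references. Four-parameter logistic fitting gave EC50.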

[5] = molecular target: T2, human GLP1R (Homo sapiens, UniProt P43220); test: cAMP activity assay, cells expressing human GLP1R; format: cell-based; conditions: cAMP production, assay buffer with or without 20% human serum (not stated which)
T2 construct: expressed in transfected cells; kept under Blasticidin and Hygromycin selection
T2 sequence (P43220 24-463): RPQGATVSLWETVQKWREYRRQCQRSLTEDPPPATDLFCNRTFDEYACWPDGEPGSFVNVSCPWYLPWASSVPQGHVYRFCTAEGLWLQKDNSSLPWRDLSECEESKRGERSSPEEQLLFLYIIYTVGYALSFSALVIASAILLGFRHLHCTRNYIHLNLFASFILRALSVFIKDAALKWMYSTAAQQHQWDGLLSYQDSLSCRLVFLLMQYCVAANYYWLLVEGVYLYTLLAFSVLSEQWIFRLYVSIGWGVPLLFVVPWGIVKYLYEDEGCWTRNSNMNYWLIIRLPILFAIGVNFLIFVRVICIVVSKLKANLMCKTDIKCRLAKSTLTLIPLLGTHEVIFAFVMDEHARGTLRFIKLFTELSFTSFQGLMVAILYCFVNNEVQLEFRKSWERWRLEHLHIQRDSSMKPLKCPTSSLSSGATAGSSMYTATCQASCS
How it was run: as §2

Row | Compound | EC50 [4] | hGCGR/hGLP1R (hTone) [4] | EC50 [5] | blood glucose lowering effect over four days [1] | change in food intake over four days [2] | change in body weight over four days [3]
1 | HXQGTFTSDpAF( ? -γE-C18—OH)SKYLDARAAQDFVQWL2DT—NH2 (H[Aib]QGTFTSD[Phe(4-CH2NH2)]([AEEA-AEEA-γGlu-C18‑OH])SKYLDARAAQDFVQWL[Met(O2)]DT-NH2) [SEQ ID NO: 28] |  |  |  | greater reduction in blood glucose | more sustained reduction in food intake | more pronounced and sustained change in body weight
2 | CC(C)C[C@H](NC(=O)[C@H](Cc1ccc(O)cc1)NC(=O)[C@H](CCCCN)NC(=O)[C@H](CO)NC(=O)[C@H](Cc1ccc(O)cc1)NC(=O)[C@H](CC(=O)O)NC(=O)[C@H](CO)NC(=O)[C@@H](NC(=O)[C@H](Cc1ccccc1)NC(=O)[C@@H](NC(=O)CNC(=O)[C@H](CCC(N)=O)NC(=O)C(C)(C)NC(=O)[C@@H](N)Cc1c[nH]cn1)[C@@H](C)O)[C@@H](C)O)C(=O)N[C@@H](CC(=O)O)C(=O)N[C@@H](C)C(=O)N[C@@H](CCCNC(=N)N)C(=O)N[C@@H](C)C(=O)N[C@@H](C)C(=O)N[C@@H](CCCCNC(=O)COCCOCCNC(=O)COCCOCCNC(=O)CC[C@H](NC(=O)CCCCCCCCCCCCC(=O)O)C(=O)O)C(=O)N[C@@H](CC(=O)O)C(=O)N[C@@H](Cc1ccccc1)C(=O)N[C@H](C(=O)N[C@@H](CCC(N)=O)C(=O)N[C@@H](Cc1c[nH]c2ccccc12)C(=O)N[C@@H](CC(C)C)C(=O)N[C@@H](CCS(C)(=O)=O)C(=O)N[C@@H](CC(=O)O)C(=O)N[C@H](C(N)=O)[C@@H](C)O)C(C)C [compound 49] (H-H[Aib]QGTFTSDYSKYLDARAAK([AEEA-AEEA-γGlu-C14 diacid])DFVQWL[Met(O2)]DT-NH2) | 0.04 nM | 1.91 | 0.02 nM |  |  | 
3 | HsQGTFTSDYSKYLDARAAK( ? -γE-C16—OH)DFVQWLLDT—NH2 (H[dS]QGTFTSDYSKYLDARAAK([AEEA-AEEA-γGlu-C16 diacid])DFVQWLLDT-NH2; N-terminus assumed; SMILES CC(C)C[C@H](NC(=O)[C@H](Cc1ccc(O)cc1)NC(=O)[C@H](CCCCN)NC(=O)[C@H](CO)NC(=O)[C@H](Cc1ccc(O)cc1)NC(=O)[C@H](CC(=O)O)NC(=O)[C@H](CO)NC(=O)[C@@H](NC(=O)[C@H](Cc1ccccc1)NC(=O)[C@@H](NC(=O)CNC(=O)[C@H](CCC(N)=O)NC(=O)[C@@H](CO)NC(=O)[C@@H](N)Cc1c[nH]cn1)[C@@H](C)O)[C@@H](C)O)C(=O)N[C@@H](CC(=O)O)C(=O)N[C@@H](C)C(=O)N[C@@H](CCCNC(=N)N)C(=O)N[C@@H](C)C(=O)N[C@@H](C)C(=O)N[C@@H](CCCCNC(=O)COCCOCCNC(=O)COCCOCCNC(=O)CC[C@H](NC(=O)CCCCCCCCCCCCCCC(=O)O)C(=O)O)C(=O)N[C@@H](CC(=O)O)C(=O)N[C@@H](Cc1ccccc1)C(=O)N[C@H](C(=O)N[C@@H](CCC(N)=O)C(=O)N[C@@H](Cc1c[nH]c2ccccc12)C(=O)N[C@@H](CC(C)C)C(=O)N[C@@H](CC(C)C)C(=O)N[C@@H](CC(=O)O)C(=O)N[C@H](C(N)=O)[C@@H](C)O)C(C)C) [SEQ ID NO: 2] |  |  |  |  | more sustained reduction in food intake | more pronounced and sustained change in body weight
4 | CC(C)C[C@H](NC(=O)[C@H](Cc1ccc(O)cc1)NC(=O)[C@H](CCCCN)NC(=O)[C@H](CO)NC(=O)[C@H](Cc1ccc(O)cc1)NC(=O)[C@H](CC(=O)O)NC(=O)[C@H](CO)NC(=O)[C@@H](NC(=O)[C@H](Cc1ccccc1)NC(=O)[C@@H](NC(=O)CNC(=O)[C@H](CCC(N)=O)NC(=O)C(C)(C)NC(=O)[C@@H](N)Cc1c[nH]cn1)[C@@H](C)O)[C@@H](C)O)C(=O)N[C@@H](CC(=O)O)C(=O)N[C@@H](C)C(=O)N[C@@H](CCCNC(=N)N)C(=O)N[C@@H](C)C(=O)N[C@@H](C)C(=O)N[C@@H](CCCCNC(=O)COCCOCCNC(=O)COCCOCCNC(=O)CC[C@H](NC(=O)CCCCCCCCCCCCCCC(=O)O)C(=O)O)C(=O)N[C@@H](CC(=O)O)C(=O)N[C@@H](Cc1ccccc1)C(=O)N[C@H](C(=O)N[C@@H](CCC(N)=O)C(=O)N[C@@H](Cc1c[nH]c2ccccc12)C(=O)N[C@@H](CC(C)C)C(=O)N[C@@H](CCS(C)(=O)=O)C(=O)N[C@@H](CC(=O)O)C(=O)N[C@H](C(N)=O)[C@@H](C)O)C(C)C [compound 19] (H-H[Aib]QGTFTSDYSKYLDARAAK([AEEA-AEEA-γGlu-C16 diacid])DFVQWL[Met(O2)]DT-NH2) | 0.08 nM | 2.15 | 0.04 nM |  |  | 

Now from value to compound, other results behind:

Row | EC50 [4] | hGCGR/hGLP1R (hTone) [4] | EC50 [5] | Compound | blood glucose lowering effect over four days [1] | change in food intake over four days [2] | change in body weight over four days [3]
5 | 0.33 nM | 2.93 | 0.11 nM | CC(C)C[C@H](NC(=O)[C@H](Cc1ccc(O)cc1)NC(=O)[C@H](CCCCN)NC(=O)[C@H](CO)NC(=O)[C@H](Cc1ccc(O)cc1)NC(=O)[C@H](CC(=O)O)NC(=O)[C@H](CO)NC(=O)[C@@H](NC(=O)[C@H](Cc1ccccc1)NC(=O)[C@@H](NC(=O)CNC(=O)[C@H](CCC(N)=O)NC(=O)C(C)(C)NC(=O)[C@@H](N)Cc1c[nH]cn1)[C@@H](C)O)[C@@H](C)O)C(=O)N[C@@H](CC(=O)O)C(=O)N[C@@H](C)C(=O)N[C@@H](CCCNC(=N)N)C(=O)N[C@@H](C)C(=O)N[C@@H](C)C(=O)N[C@@H](CCCCNC(=O)COCCOCCNC(=O)COCCOCCNC(=O)CC[C@H](NC(=O)CCCCCCCCCCCCCCC(=O)O)C(=O)O)C(=O)N[C@@H](CC(=O)O)C(=O)N[C@@](C)(Cc1ccccc1)C(=O)N[C@H](C(=O)N[C@@H](CCC(N)=O)C(=O)N[C@@H](Cc1c[nH]c2ccccc12)C(=O)N[C@@H](CC(C)C)C(=O)N[C@@H](CCS(C)(=O)=O)C(=O)N[C@@H](CC(=O)O)C(=O)N[C@H](C(N)=O)[C@@H](C)O)C(C)C [compound 39] (H-H[Aib]QGTFTSDYSKYLDARAAK([AEEA-AEEA-γGlu-C16 diacid])D[αMeF]VQWL[Met(O2)]DT-NH2) |  |  | 
6 | 1.1 nM | 2.3 | 0.5 nM | CC(C)C[C@H](NC(=O)[C@H](Cc1ccc(O)cc1)NC(=O)[C@H](CCCCN)NC(=O)[C@H](CO)NC(=O)[C@H](Cc1ccc(O)cc1)NC(=O)[C@H](CC(=O)O)NC(=O)[C@H](CO)NC(=O)[C@@H](NC(=O)[C@H](Cc1ccccc1)NC(=O)[C@@H](NC(=O)CNC(=O)[C@H](CCC(N)=O)NC(=O)C(C)(C)NC(=O)[C@@H](N)Cc1c[nH]cn1)[C@@H](C)O)[C@@H](C)O)C(=O)N[C@@H](CC(=O)O)C(=O)N[C@@H](C)C(=O)N[C@@H](CCCCN)C(=O)N[C@@H](C)C(=O)N[C@@H](C)C(=O)N[C@@H](CCCCNC(=O)COCCOCCNC(=O)COCCOCCNC(=O)CC[C@H](NC(=O)CCCCCCCCCCCCCCCCC(=O)O)C(=O)O)C(=O)N[C@@H](CC(=O)O)C(=O)N[C@@H](Cc1ccccc1)C(=O)N[C@H](C(=O)N[C@@H](CCC(N)=O)C(=O)N[C@@H](Cc1c[nH]c2ccccc12)C(=O)N[C@@H](CC(C)C)C(=O)N[C@@H](CCS(C)(=O)=O)C(=O)N[C@@H](CC(=O)O)C(=O)N[C@H](C(N)=O)[C@@H](C)O)C(C)C [compound 70] (H-H[Aib]QGTFTSDYSKYLDAKAAK([AEEA-AEEA-γGlu-C18 diacid])DFVQWL[Met(O2)]DT-NH2; N-terminus assumed) |  |  | 
7 | 0.07 nM | 2.52 | 0.028 nM | CC(C)C[C@H](NC(=O)[C@H](Cc1ccc(O)cc1)NC(=O)[C@H](CCCCN)NC(=O)[C@H](CO)NC(=O)[C@H](Cc1ccc(O)cc1)NC(=O)[C@H](CC(=O)O)NC(=O)[C@H](CO)NC(=O)[C@@H](NC(=O)[C@H](Cc1ccccc1)NC(=O)[C@@H](NC(=O)CNC(=O)[C@H](CCC(N)=O)NC(=O)C(C)(C)NC(=O)[C@@H](N)Cc1c[nH]cn1)[C@@H](C)O)[C@@H](C)O)C(=O)N[C@@H](CC(=O)O)C(=O)N[C@@H](C)C(=O)N[C@@H](CCCNC(=N)N)C(=O)N[C@@H](C)C(=O)N[C@@H](C)C(=O)N[C@@H](CCC(N)=O)C(=O)N[C@@H](Cc1ccc(CNC(=O)COCCOCCNC(=O)COCCOCCNC(=O)CC[C@H](NC(=O)CCCCCCCCCCCCCCCCC(=O)O)C(=O)O)cc1)C(=O)N[C@@H](Cc1ccccc1)C(=O)N[C@H](C(=O)N[C@@H](CCC(N)=O)C(=O)N[C@@H](Cc1c[nH]c2ccccc12)C(=O)N[C@@H](CC(C)C)C(=O)N[C@@H](CC(C)C)C(=O)N[C@@H](CC(=O)O)C(=O)N[C@H](C(N)=O)[C@@H](C)O)C(C)C [compound 32] (H-H[Aib]QGTFTSDYSKYLDARAAQ[Phe(4-CH2NH2)]([AEEA-AEEA-γGlu-C18 diacid])FVQWLLDT-NH2; N-terminus assumed) |  |  | 
8 | 0.36 nM | 0.9 | 0.42 nM | CC(C)C[C@H](NC(=O)[C@H](Cc1ccc(O)cc1)NC(=O)[C@H](CCCCN)NC(=O)[C@H](CO)NC(=O)[C@H](Cc1ccc(O)cc1)NC(=O)[C@H](CC(=O)O)NC(=O)[C@H](CO)NC(=O)[C@@H](NC(=O)[C@H](Cc1ccccc1)NC(=O)[C@@H](NC(=O)CNC(=O)[C@H](CCC(N)=O)NC(=O)C(C)(C)NC(=O)[C@@H](N)Cc1c[nH]cn1)[C@@H](C)O)[C@@H](C)O)C(=O)N[C@@H](CC(=O)O)C(=O)N[C@@H](C)C(=O)N[C@@H](CCCNC(=N)N)C(=O)N[C@@H](C)C(=O)N[C@@H](C)C(=O)N[C@@H](CCC(N)=O)C(=O)N[C@@H](Cc1ccc(CNC(=O)COCCOCCNC(=O)COCCOCCNC(=O)CC[C@H](NC(=O)CCCCCCCCCCCCCCCCC(=O)O)C(=O)O)cc1)C(=O)N[C@@H](Cc1ccccc1)C(=O)N[C@H](C(=O)N[C@@H](CCC(N)=O)C(=O)N[C@@H](Cc1c[nH]c2ccccc12)C(=O)N[C@@H](CC(C)C)C(=O)N[C@@H](CC(C)C)C(=O)N[C@@](C)(CC(=O)O)C(=O)N[C@H](C(N)=O)[C@@H](C)O)C(C)C [compound 75] (H-H[Aib]QGTFTSDYSKYLDARAAQ[Phe(4-CH2NH2)]([AEEA-AEEA-γGlu-C18 diacid])FVQWLL[αMeD]T-NH2) |  |  | 
